In patent US4963553A, “4-[(substituted) alkylcarbonyl]-4,5-dihydro- and -4,5,6,7-tetrahydro-7-[(substituted)phenyl]pyrazolo[1,5-a]pyrimidines” (American Cyanamid Co., priority 1988, dated 1990):
Structures can show the parent of a compound that is named as a salt.

Tested on: mice (hypoxic environment)
Experiment: Hypoxic survival test
Assay type: in vivo, mouse (Royal Hart)
Conditions: 10% oxygen; for % Survivors / responders at 100 mg/kg: 100 mg/kg
Description: The hypoxic survival test is a useful in vivo test for measuring the effectiveness of central nervous system-acting drugs in enhancing survival in an hypoxic environment relative to the known parasympathomimetic agent physostigmine.
Drugs are tested by intraperitoneal injection of groups of mice 30 minutes prior to placing them in an hypoxic environment and measuring survival. The rationale of this test is that drugs which enhance survival under hypoxic conditions without concomitant depression or sedative side effects, do so by enhancing brain metabolism, i.e., by improving energy supply relative to demand and so preserving normal brain function under conditions of reduced energy metabolism. Considering the dependence of the brain on a constant supply of energy, drugs which have this property may have many far-reaching therapeutic indications, including aiding recovery from stroke and closed head injury and reducing the deleterious effects of age-related central nervous system deficits.
In the hypoxic survival test, groups of 20 Royal Hart mice (6 weeks of age) were injected intraperitoneally with a test compound in saline at various doses ranging from 1 to 200 mg/kg, 30 minutes prior to placing them in an hypoxic mixture (10% oxygen, 90% […]) and measuring survival after 5 minutes.
A control group of 20 mice was injected intraperitoneally with saline (0.01 ml/g of body weight) and processed as described above.
Another group of 20 mice was injected intraperitoneally with 0.125 mg/kg of physostigmine in saline and processed as described above.

[1] = Mus musculus, ip, 5 min, intraperitoneal, 5 minutes, read-out: % Survivors

Compound | responders at 100 mg/kg [1] | further results
CC1=C(c2ccc(Cl)cc2)n2ncc(C#N)c2N(C(=O)CN2CCN(Cc3cccc(C(F)(F)F)c3)CC2)C1 [Example 142, 7-(4-Chlorophenyl)-4,5-dihydro-6-methyl-4-[[4-[[3-(trifluoromethyl)phenyl]methyl-1-piperazinyl]acetyl]pyrazolo[1,5-a]pyrimidine-3-carbonitrile, dihydrochloride] | – | responders at 200 mg/kg [1]: 37.5%
N#Cc1cnn2c1N(C(=O)CN1CCN(CCc3ccccc3)CC1)CC=C2c1cccc(C(F)(F)F)c1 [4,5-Dihydro-4-[[4-(2-phenylethyl)-1-piperazinyl]acetyl]-7-[3-trifluoromethyl)phenyl]pyrazolo[1,5-a]pyrimidine-3-carbonitrile] | – | % Survivors (intraperitoneal, 5 minutes): 90%
CC1=C(c2cccc(Cl)c2)n2ncc(C#N)c2N(C(=O)CN2CCN(Cc3cccc(Cl)c3)CC2)C1 [Example 131, 7-(3-Chloroohenyl)-4-[[4-[(3-Chlorophenyl)methyl-1-piperazinyl]acetyl]4,5-dihydro-6-methylpyrazolo[1,5-a]pyrimidine-3-carbonitrile, dihydrochloride] | 77% | responders at 50 mg/kg (Mus musculus, ip, 5 min, 50 mg/kg, intraperitoneal, 5 minutes, read-out: % Survivors): 73%
COc1cccc(CN2CCN(CC(=O)N3CC=C(c4ccccc4)n4ncc(C#N)c43)CC2)c1 [Example 148, 4,5-Dihydro-4-[[4-[(3-methoxyphenyl)methyl]-1-piperazinyl]acetyl]-7-phenylpyrazolo[1,5-a]pyrimidine-3-carbonitrile] | 55% | –
COc1ccc(C(=O)N2CCN(CC(=O)N3CC=C(c4cccc(C(F)(F)F)c4)n4ncc(C#N)c43)CC2)cc1 [Example 162, 4,5-Dihydro-4-[[4-(4-methoxybenzoyl)-1-piperazinyl]acetyl]-7-[3-(trifluoromethyl)phenyl]pyrazolo[1,5-a]pyrimidine-3-carbonitrile] | 45% | –
N#Cc1cnn2c1N(C(=O)CN1CCN(Cc3ccccc3C(F)(F)F)CC1)CC=C2c1cccc(C(F)(F)F)c1 [Example 151, 4,5-Dihydro-7-[3-(trifluoromethyl)phenyl]-4-[[4-[[2-(trifluoromethyl)phenyl]methyl]-1-piperazinyl]acetyl]pyrazolo[1,5-a]pyrimidine-3-carbonitrile] | 20% | –
CC1=C(c2cccc(C(F)(F)F)c2)n2ncc(C#N)c2N(C(=O)CN2CCN(Cc3cccc(C(F)(F)F)c3)CC2)C1 [Example 160, 4,5-Dihydro-6-methyl-7-[3-(trifluoromethyl)phenyl]-4-[[4-[[3-(trifluoromethyl)phenyl]methyl]-1-piperazinyl]acetyl]pyrazolo[1,5-a]pyrimidine-3-dihydrochloride] | 40% | –
N#Cc1cnn2c1N(C(=O)CN1CCN(C(c3ccc(F)cc3)c3ccc(F)cc3)CC1)CC=C2c1cccc(C(F)(F)F)c1 [Example 88, 4-[[4-[Bis(4-Fluorophenyl)methyl]-1-piperazinyl]acetyl]-4,5-dihydro-7-[3-(trifluoromethyl)phenyl]pyrazolo[1,5-a]pyrimidine-3-carbonitrile, dihydrochloride] | 55% | –
N#Cc1cnn2c1N(C(=O)CN1CCN(Cc3c(Cl)cccc3Cl)CC1)CCC2c1cccc(C(F)(F)F)c1 (centres unmarked) [Example 54, 4-[[4-[(2,6-Dichlorophenyl)methyl]-1-piperazinyl]acetyl]-4,5,6,7-tetrahydro-7-[3-(trifluoromethyl)phenyl]pyrazolo[1,5-a]pyrimidine-3-carbonitrile] | – | responders at 10 mg/kg [1]: 25%
N#Cc1cnn2c1N(C(=O)CN1CCN(C(=O)c3ccccc3)CC1)CC=C2c1cccc(C(F)(F)F)c1 [Example 68, 4-[[4-Benzoyl-1-piperazinyl)acetyl]-4,5-dihydro-7-[3-(trifluoromethyl)phenyl]pyrazolo[1,5-a]pyrimidine-3-carbonitrile] | 95% | –
CC1C=C(c2cccc(C(F)(F)F)c2)n2ncc(C#N)c2N1C(=O)CN1CCN(Cc2ccccc2)CC1 (centres unmarked) [Example 95, 4,5-Dihydro-5-methyl-4-[[4-(phenylmethyl)-1-piperazinyl]acetyl]-7-[3-(trifluoromethyl)phenyl]pyrazolo[1,5-a]pyrimidine-3-carbonitrile, dihydrochloride] | 43% | –
CCC1=C(c2cccc(C(F)(F)F)c2)n2ncc(C#N)c2N(C(=O)CN2CCN(Cc3ccccc3)CC2)C1 [Example 161, 4,5-Dihydro-6-ethyl-4-[[4-(phenylmethyl)-1-piperazinyl]acetyl]-7-[3-(trifluoromethyl)phenyl]pyrazolo[1,5-a]pyrimidine-3-carbonitrile] | 25% | –
N#Cc1cnn2c1N(C(=O)CN1CCN(c3ccc(F)cc3)CC1)CC=C2c1cccc(C(F)(F)F)c1 [Example 153, 4-[[4-(4-Fluorophenyl)-1-piperazinyl]acetyl]4,5-dihydro-7-[3-(trifluoromethyl)phenyl]pyrazolo[1,5-a]pyrimidine-3-carbonitrile, monohydrochloride] | 35% | –
N#Cc1cnn2c1N(C(=O)CN1CCN(Cc3ccccc3)CC1)CC=C2c1cc(Cl)ccc1Cl [Example 62, 7-(2,5-Dichlorophenyl)-4,5-dihydro-4-[[4-(phenylmethyl)-1-piperazinyl]acetyl]pyrazolo[1,5-a]pyrimidine-3-carbonitrile] | 50% | –
CC1=C(c2ccc(Cl)cc2)n2ncc(C#N)c2N(C(=O)CN2CCN(Cc3ccccc3)CC2)C1 [Example 114, 7-(4-Chlorophenyl)-4.5-dihydro-6-methyl-4[[4-(phenylmethyl)piperazinyllacetyllpyrazolo[1,5-a]pyrimidine-3-carbonitrile, dihydrochloride] | 25% | –
O=C(CN1CCN(Cc2ccccc2)CC1)N1CC=C(c2cccc(C(F)(F)F)c2)n2ncc(Cl)c21 [Example 155, 3-Chloro-4,5-dihydro-4-[[4-(phenylmethyl-1-piperazinyl]acetyl]-7-[3-trifluoromethyl)phenylpyrazolo[1,5-a]pyrimidine, dihydrochloride] | 25% | –
CNC(=O)Oc1ccc2c(c1)[C@]1(C)CCN(C)[C@@H]1N2C [physostigimine, reference compound] | – | mice surviving (physostigmine-treated) (after 5 minutes, physostigmine group 0.125 mg/kg intraperitoneal): 60-80%
N#Cc1cnn2c1N(C(=O)CN1CCN(Cc3cccc(Cl)c3)CC1)CCC2c1cccc(C(F)(F)F)c1 (centres unmarked) [Example 53, 4-[[4-[(3-Chlorophenyl)methyl]-1-piperazinyl]acetyl]-4,5,6,7-tetrahydro-7-[3-(trifluoromethyl)phenyl]pyrazolo[1,5-a]pyrimidine-3-carbonitrile] | 15% | –
NC(=O)c1cnn2c1N(C(=O)CN1CCN(Cc3ccccc3)CC1)CC=C2c1cccc(C(F)(F)F)c1 [Example 75, 4,5-Dihydro-4-[[4-(phenylmethyl)-1-piperazinyl]acetyl]-7-[3-(trifluoromethyl)phenyl]pyrazolo[1,5-a]pyrimidine-3-carboxamide] | – | responders at 10 mg/kg [1]: 15%
N#Cc1cnn2c1N(C(=O)CN1CCN(Cc3ccccc3F)CC1)CC=C2c1cccc(C(F)(F)F)c1 [Example 156, 4-[[4-[(2-Fluorophenyl)methyl]-1-piperazinyl]acetyl]4,5-dihydro-7-[3-(trifluoromethyl)phenyl]pyrazolo[1,5-a]pyrimidine-3-carbonitrile] | 55% | –
N#Cc1cnn2c1N(C(=O)CN1CCN(C3CCC3)CC1)CC=C2c1cccc(C(F)(F)F)c1 [Example 91, 4-[(4-Cyclobutyl-1-piperazinyl)acetyl]-4,5-dihydro-7-[3-(trifluoromethyl)phenyl]pyrazolo[1,5-a]pyrimidine-3-carbonitrile, dihydrochloride] | – | responders at 10 mg/kg [1]: 55%
O=C(CN1CCN(Cc2ccccc2)CC1)N1CC=C(c2cccc(C(F)(F)F)c2)n2ncc(Br)c21 [Example 76, 3-Bromo-4,5-dihydro-4-[[4-(phenylmethyl)-1-piperazinyl]acetyl]-7-[3-(trifluoromethyl)phenyl]pyrazolo[1,5-a]pyrimidine] | 35% | –
N#Cc1cnn2c1N(C(=O)CN1CCN(Cc3cccc(C(F)(F)F)c3)CC1)CC=C2c1cccc(C(F)(F)F)c1 [Example 128, 4,5-Dihydro-4-[[4-[(3-trifluoromethylphenyl)methyl]-1-piperazinyl]acetyl]-7-[3-(trifluoromethyl)phenyl]pyrazolo[1,5-a]pyrimidine-3-carbonitrile] | – | % Survivors (intraperitoneal, 5 minutes): 40%
CC1=C(c2cccc(Cl)c2)n2ncc(C#N)c2N(C(=O)CN2CCN(Cc3cccc(C(F)(F)F)c3)CC2)C1 [Example 127, 7-(3-Chlorophenyl)-4,5-dihydro-6-methyl-4-[[4-[[3-(trifluoromethyl)phenyl]methyl]-1-piperazinyl]acetyl]pyrazolo[1,5-a]pyrimidine-3-carbonitrile] | – | responders at 200 mg/kg [1]: 73%
CC1=C(c2cccc(C(F)(F)F)c2)n2ncc(C#N)c2N(C(=O)CN2CCN(Cc3ccccc3)CC2)C1 [Example 111, 4,5-Dihydro-6-methyl-4-[[4-(phenylmethyl)-1-piperazinyl]acetyl]-7-[3-(trifluoromethyl)phenyl]pyrazolo[1.5-a]pyrimidine-3-carbonitrile. dihydrochloride] | 73% | –
